According to patent US7070813B2, “Preventative and treatment effects of morinda citrifolia as a colon cancer cell growth inhibitor” (priority 2001, dated 2006):
pIC50: −log10 of the molar value.

Test system: human colon tumor cell line DLD-1
Assay: cells
Type: cell-based
Conditions: for Percent Growth (Mean ± SEM, n = 2): 72 h exposure
Description: A colon tumor assay was used to detect changes in cell proliferation based on the ability of viable cells to cause alamarBlue to change from its oxidized state (non-fluorescent, blue) to a reduced (fluorescent, red) form. With the results obtained from the alamarBlue reaction, cell proliferation can be quantified and metabolic activity of viable cells can be examined. MDA-1 (a processed Morinda citrifolia product) was tested for its effect upon the proliferation of human colon tumor cell line (or DLD-1), and at five final assay concentrations from 10% to […] through 2-fold serial dilutions.
The MDA-1 test compound, or Morinda citrifolia fruit juice, was used for in vitro anti-tumor studies. The test compound was in liquid form and diluted with phosphate-buffered saline to obtain initial working solutions. […]
The human colon tumor cell line of DLD-1 was obtained from American Type Culture Collection (ATCC CCL-221). The culture was used with RPMI 1640, 90%; Fetal Bovine Serum, 10% and supplemented with 1% Antibiotic-Antimycotic and the cells were incubated in an atmosphere containing 5% CO2 at 37 degrees Celsius.
In the evaluation of anti-proliferation for test substances, […].
Mean Ftime0=The average of two measured fluorescent intensities of reduced alamarBlue at the time just before exposure of cells to the test substance.
Mean Ftest=The average of two measured fluorescent intensities of alamarBlue after seventy-two hour exposure of cells to the test substance.
Mean Fctrl=The average of two measured fluorescent intensities of alamarBlue after seventy-two hour incubation without the test substance.
Mean Fblank=The average of two measured fluorescent intensities of alamarBlue in medium without cells after seventy-two hour incubation.
A decrease of fifty percent or more (≧50%) in fluorescent intensity relative to vehicle-treated control indicated significant cell growth inhibition, cytostatic or cytotoxic activity, and a semi-quantitative IC50, TGI and LC50 were then determined by nonlinear regression using GraphPad Prism (GraphPad Software, USA).
TGI (Total Growth Inhibition): Test compound concentration where the number or mass of treated cells at the end of experiment was equal to that at time0.
A semi-quantitative determination of IC50, TGI and LC50 was carried out by nonlinear regression analysis using GraphPad Prism (GraphPad Software, USA).

## CO[C@@]12[C@H](COC(N)=O)C3=C(C(=O)C(C)=C(N)C3=O)N1C[C@@H]1N[C@@H]12 [Mitomycin]
DLD-1, at <10 μM
  activity of standard reference agent (growth inhibition): Significant activity
DLD-1, concentration 0.001 μM
  Percent Growth (Mean ± SEM, n = 2): 95 ± 5
DLD-1, concentration 0.01 μM
  Percent Growth (Mean ± SEM, n = 2): 103 ± 6
DLD-1, concentration 0.1 μM
  Percent Growth (Mean ± SEM, n = 2): 60 ± 7
DLD-1, concentration 1 μM
  Percent Growth (Mean ± SEM, n = 2): 35 ± 4
DLD-1, concentration 10 μM
  Percent Growth (Mean ± SEM, n = 2): −50 ± 8
DLD-1, semi-quantitative, nonlinear regression
  Estimated TGI (Total Growth Inhibition): 2200 nM
Homo sapiens, DLD-1, semi-quantitative, nonlinear regression, read-out: Estimated IC50 (50% Inhibition Concentration)
  pIC50: 6.42
